Measured values: US20230079045A1 (priority 2019, published 2023)
Like-named read-outs stand apart in the source and are kept apart here.

Legend:
IFVA/Mal/302/54 = assay: cytopathic effect (CPE) antiviral test in MDCK cells, IFVA/Mal/302/54; format: cell-based, influenza virus
IFVA/Weiss/43 = assay: cytopathic effect (CPE) antiviral test in MDCK cells, IFVA/Weiss/43; format: cell-based, influenza virus
[1] = unidentified influenza virus, MDCK, 120 h, read-out: EC50(IFVA/Mal/302/54), MDCK cells, CPE method, CCK-8 cell viability, 5 days
[2] = unidentified influenza virus, MDCK, 120 h, read-out: EC50(IFVA/Weiss/43), MDCK cells, CPE method, CCK-8 cell viability, 5 days
[3] = read-out: EC50(IFVA/Mal/302/54), MDCK cells, CPE method, CCK-8 cell viability, 5 days
[4] = read-out: EC50(IFVA/Weiss/43), MDCK cells, CPE method, CCK-8 cell viability, 5 days

| SMILES | EC50 (IFVA/Mal/302/54; [1]) | EC50 (IFVA/Weiss/43; [2]) | EC50 (IFVA/Mal/302/54; [3]) | EC50 (IFVA/Weiss/43; [4]) |
| --- | --- | --- | --- | --- |
| O=C(Nc1ccc2oc(-c3ccnc(C(=O)N4CCN(C(c5ccccc5)c5nnn(C(F)F)n5)CC4)c3)nc2c1)[C@@H]1CC1(F)F (mixture of isomers) [Compound 29, (1S)—N-(2-(2-(4-((2-(difluoromethyl)-2H-tetrazol-5-yl)(phenyl)methyl)piperazine-1-carbonyl)pyridin-4-yl)benzo[d]oxazol-5-yl)-2,2-difluorocyclopropane-1-carboxamide] | 22 nM | 4 nM | – | – |
| O=C(Nc1ccc2oc(-c3ccnc(C(=O)N4CCN(C(c5ccccc5)c5nnn(C(F)F)n5)CC4)c3)nc2c1)[C@@H]1C[C@@H]1F (mixture of isomers) [Compound 31, (1S,2S)-2-fluoro-N-(2-(2-(4-((2-difluoromethyl-2H-tetrazol-5-yl)(phenyl)methyl)piperazine-1-carbonyl)pyridin-4-yl)benzo[d]oxazol-5-yl)cyclopropane-1-carboxamide] | 7 nM | 2 nM | – | – |
| CC(=O)Nc1ccc2oc(-c3ccnc(C(=O)N4CCN(C(c5ccccc5)c5nnn(C(F)F)n5)CC4)c3F)nc2c1 (racemic) [Compound 79, (R/S)—N-(2-(2-(4-((2-(difluoromethyl)-2H-tetrazol-5-yl)(phenyl)methyl)piperazine-1-carbonyl)-3-fluoropyridin-4-yl)benzo[d]oxazol-5-yl)acetamide] | 13 nM | 7 nM | – | – |
| Cn1ccnc1-c1ccc2oc(-c3ccnc(C(=O)N4CCN(C(c5ccccc5)c5nnn(C(F)F)n5)CC4)c3)nc2c1 (racemic) [Compound 88, (R/S)-(4-((2-(difluoromethyl)-2H-tetrazol-5-yl)(phenyl)methyl)piperazin-1-yl)(4-(5-(1-methyl-1H-imidazol-2-yl)benzo[d]oxazol-2-yl)pyridin-2-yl)methanone] | 2 nM | 2 nM | – | – |
| CC(=O)Nc1ccc2nc(-c3ccnc(C(=O)N4CCN(C(c5ccccc5)c5nnn(C(F)F)n5)CC4)c3)oc2c1 (racemic) [Compound 90, (R/S)—N-(2-(2-(4-((2-(difluoromethyl)-2H-tetrazol-5-yl)(phenyl)methyl)piperazine-1-carbonyl)pyridin-4-yl)benzo[d]oxazol-6-yl)acetamide] | 18 nM | 28 nM | – | – |
| CCC(=O)Nc1ccc2oc(-c3ccnc(C(=O)N4CCN(C(c5ccccc5)c5nnn(C(F)F)n5)CC4)c3)nc2c1 (racemic) [Compound 96, (R/S)—N-(2-(2-(4-((2-(difluoromethyl)-2H-tetrazol-5-yl)(phenyl)methyl)piperazine-1-carbonyl)pyridin-4-yl)benzo[d]oxazol-5-yl)propionamide] | 7 nM | 12 nM | – | – |
| CC(C)C(=O)Nc1ccc2oc(-c3ccnc(C(=O)N4CCN(C(c5ccccc5)c5nnn(C(F)F)n5)CC4)c3)nc2c1 (racemic) [Compound 97, (R/S)—N-(2-(2-(4-((2-(difluoromethyl)-2H-tetrazol-5-yl)(phenyl)methyl)piperazine-1-carbonyl)pyridin-4-yl)benzo[d]oxazol-5-yl)isobutyramide] | 6 nM | 7 nM | – | – |
| O=C(c1cc(-c2nc3cc(-c4cscn4)ccc3o2)ccn1)N1CCN(C(c2ccccc2)c2nnn(C(F)F)n2)CC1 (racemic) [Compound 110, (R/S)-(4-((2-(difluoromethyl)-2H-tetrazol-5-yl)(phenyl)methyl)piperazin-1-yl)(4-(5-(thiazol-4-yl)benzo[d]oxazol-2-yl)pyridin-2-yl)methanone] | 3 nM | 3 nM | – | – |
| O=C(Nc1ccc2oc(-c3ccnc(C(=O)N4CCN(C(c5ccccc5)c5nnn(C(F)F)n5)CC4)c3)nc2c1)C1CC1 (racemic) [Compound 196, (R/S)—N-(2-(2-(4-((2-(difluoromethyl)-2H-tetrazol-5-yl)(phenyl)methyl)piperazine-1-carbonyl)pyridin-4-yl)benzo[d]oxazol-5-yl)cyclopropanecarboxamide] | 8 nM | 6 nM | – | – |
| CC(=O)Nc1ccc2oc(-c3ccnc(C(=O)N4CCN(C(c5ccccc5)c5nnn(C)n5)[C@H](C)C4)c3)nc2c1 (single isomer, unassigned) [Compound 16b] | > 10000 nM | > 10000 nM | – | – |
| O=C(Nc1ccc2oc(-c3ccnc(C(=O)N4CCN(C(c5ccccc5)c5nnn(C(F)F)n5)CC4)c3)nc2c1)C1CC1(F)F (single isomer, unassigned) [Compound 82, (R/S)—N-(2-(2-(4-((R/S)-(2-(difluoromethyl)-2H-tetrazol-5-yl)(phenyl)methyl)piperazine-1-carbonyl)pyridin-4-yl)benzo[d]oxazol-5-yl)-2,2-difluorocyclopropane-1-carboxamide] | 11 nM | 7 nM | – | – |
| Cn1nnc(C(c2ccccc2)N2CCN(C(=O)c3cc(-c4nc5cc(OC6CCOC6)ccc5o4)ccn3)CC2)n1 (stereo in doubt) [Compound 43, (4-((2-methyl-2H-tetrazol-5-yl)(phenyl)methyl)piperazin-1-yl)(4-(5-(((R)-tetrahydrofuran-3-yl)oxy)benzo[d]oxazol-2-yl)pyridin-2-yl)methanone] | – | – | 10 nM | 57 nM |
| CC(=O)Nc1ccc2oc(-c3ccnc(C(=O)N4CC5CCC(C4)N5C(c4ccccc4)c4nnn(C)n4)c3)nc2c1 (stereo not drawn) [Compound 1, N-(2-(2-(8-((2-methyl-2H-tetrazol-5-yl)(phenyl)methyl)-3,8-diazabicyclo[3.2.1]octane-3-carbonyl)pyridin-4-yl)benzo[d]oxazol-5-yl)acetamide] | 573 nM | 480 nM | – | – |
| Cn1nnc(C(c2ccccc2)N2CCN(C(=O)c3cc(-c4nc5cc(N6CCCC6=O)ccc5o4)ccn3)CC2)n1 (stereo not drawn) [Compound 2, 1-(2-(2-(4-((2-methyl-2H-tetrazol-5-yl)(phenyl)methyl)piperazine-1-carbonyl)pyridin-4-yl)benzo[d]oxazol-5-yl)pyrrolidin-2-one] | 26 nM | < 5 nM | – | – |
| CC(=O)Nc1ccc2oc(-c3ccnc(C(=O)N4CC5CN(C(c6ccccc6)c6nnn(C)n6)CC5C4)c3)nc2c1 (stereo not drawn) [Compound 3, N-(2-(2-(5-((2-methyl-2H-tetrazol-5-yl)(phenyl)methyl)octahydropyrrolo[3,4-c]pyrrole-2-carbonyl)pyridin-4-yl)benzo[d]oxazol-5-yl)acetamide] | 1170 nM | 780 nM | – | – |
| CC(=O)Nc1ccc2oc(-c3ccnc(C(=O)N4CCN(C(c5ccccc5)c5nnn(C)n5)CC45CC5)c3)nc2c1 (stereo not drawn) [Compound 5, N-(2-(2-(7-((2-methyl-2H-tetrazol-5-yl)(phenyl)methyl)-4,7-diazaspiro[2.5]octane-4-carbonyl)pyridin-4-yl)benzo[d]oxazol-5-yl)acetamide] | 24 nM | 16 nM | – | – |
| CC(=O)Nc1ccc2oc(-c3ccnc(C(=O)N4C[C@H]5C[C@@H]4CN5C(c4ccccc4)c4nnn(C)n4)c3)nc2c1 (stereo partly drawn) [Compound 6a, N-(2-(2-((1R,4R)-5-((2-methyl-2H-tetrazol-5-yl)(phenyl)methyl)-2,5-diazabicyclo[2.2.1]heptane-2-carbonyl)pyridin-4-yl)benzo[d]oxazol-5-yl)acetamide] | > 10000 nM | > 7870 nM | – | – |
| CC(=O)Nc1ccc2oc(-c3ccnc(C(=O)N4C[C@H]5C[C@@H]4CN5C(c4ccccc4)c4nnn(C)n4)c3)nc2c1 (stereo partly drawn) [Compound 6b, N-(2-(2-((1R,4R)-5-((2-methyl-2H-tetrazol-5-yl)(phenyl)methyl)-2,5-diazabicyclo[2.2.1]heptane-2-carbonyl)pyridin-4-yl)benzo[d]oxazol-5-yl)acetamide] | – | – | > 10000 nM | > 10000 nM |
| CC(=O)Nc1ccc2oc(-c3ccnc(C(=O)N4CCN(C(c5ccccc5)c5nnn(C)n5)C5(CC5)C4)c3)nc2c1 (stereo not drawn) [Compound 7, N-(2-(2-(4-((2-methyl-2H-tetrazol-5-yl)(phenyl)methyl)-4,7-diazaspiro[2.5]octane-7-carbonyl)pyridin-4-yl)benzo[d]oxazol-5-yl)acetamide] | 841 nM | 520 nM | – | – |
| CC(=O)Nc1ccc2oc(-c3ccnc(C(=O)N4CC5(CCN(C(c6ccccc6)c6nnn(C)n6)CC5)C4)c3)nc2c1 (stereo not drawn) [Compound 8, N-(2-(2-(7-((2-methyl-2H-tetrazol-5-yl)(phenyl)methyl)-2,7-diazaspiro[3.5]nonane-2-carbonyl)pyridin-4-yl)benzo[d]oxazol-5-yl)acetamide] | > 10000 nM | > 10000 nM | – | – |
| CC(=O)Nc1ccc2oc(-c3ccnc(C(=O)N4CCN(C(c5nnn(C)n5)c5ccccc5F)CC4)c3)nc2c1 (stereo not drawn) [Compound 9, N-(2-(2-(4-((2-fluorophenyl)(2-methyl-2H-tetrazol-5-yl)methyl)piperazine-1-carbonyl)pyridin-4-yl)benzo[d]oxazol-5-yl)acetamide] | 214 nM | 126 nM | – | – |
| CC(=O)Nc1ccc2oc(-c3ccnc(C(=O)N4CC5(C4)CN(C(c4ccccc4)c4nnn(C)n4)C5)c3)nc2c1 (stereo not drawn) [Compound 10, N-(2-(2-(6-((2-methyl-2H-tetrazol-5-yl)(phenyl)methyl)-2,6-diazaspiro[3.3]heptane-2-carbonyl)pyridin-4-yl)benzo[d]oxazol-5-yl)acetamide] | > 10000 nM | > 10000 nM | – | – |
| CC(=O)Nc1ccc2oc(-c3ccnc(C(=O)N4CCN(C(c5cccc(F)c5)c5nnn(C)n5)CC4)c3)nc2c1 (stereo not drawn) [Compound 11, N-(2-(2-(4-((3-fluorophenyl)(2-methyl-2H-tetrazol-5-yl)methyl)piperazine-1-carbonyl)pyridin-4-yl)benzo[d]oxazol-5-yl)acetamide] | 260 nM | 173 nM | – | – |
| CC(=O)Nc1ccc2oc(-c3ccnc(C(=O)N4CCN(C(c5ccc(F)cc5)c5nnn(C)n5)CC4)c3)nc2c1 (stereo not drawn) [Compound 12, N-(2-(2-(4-((4-fluorophenyl)(2-methyl-2H-tetrazol-5-yl)methyl)piperazine-1-carbonyl)pyridin-4-yl)benzo[d]oxazol-5-yl)acetamide] | 55 nM | 22 nM | – | – |
